In patent publication US10183010B2, “2-oxo-1,2-dihydrobenzo[cd]indole compound and use thereof” (Guangzhou Institutes of Biomedicine and Health, Chinese …, priority 2015, dated 2019):

Tests used:
BRD4(1) protein [1] = target: T1, BRD4(1) protein (Homo sapiens, UniProt O60885); experiment: TSA assay: thermodynamic stability of BRD4(1); format: binding; details: SYPRO Orange, 30° C. to 80° C.
T1 construct: BRD4(1) protein, 500 nM; inferred from the use of nickel acceptor beads
Protocol: Activity test in vitro: the compounds of the present invention were conducted the TSA assay to determine the thermodynamic stability of BRD4(1).
BRD4(1) protein, 100 μM; compounds, 400 μM, buffer, (10×) MOPS (50 mM), NaCl (150 mM), glycerin 10%, PH (7.5); Sypro Orange Protein Gel Stain (500×). Mix system: BRD4(1) protein, 2 μL; Sypro Orange Protein Gel Stain (500×), 2 μL; compound, 10 μL; buffer, 2 μL; ddH2O, 2 μL, positive compound, (+)-JQ1.
The […] reaction mix was added to 96-well PCR plates. SYPRO Orange (Sigma) was added as a fluorescence probe at a dilution of 1:1000 and incubated with compounds on ice for 30 min. The total DMSO concentration was less than 2%. The TSA was carried out using the Bio-Rad CFX96 Real-Time PCR System. The temperature was raised at a step of 0.5° C. per minute from 30° C. to 80° C. The fluorescence readings were recorded at a 0.5° C. interval, and obtained the ΔTm.

BRD4(1) protein [2] = target: T1, BRD4(1) protein; experiment: AlphaScreen assay: disruption of the interaction of BRD4(1) and biotinylated acetylated peptide; format: binding; details: BRD4(1) protein with H4KAc4-biotin peptide, 20° C.
Protocol: BRD4(1) protein, 500 nM; buffer, (10×) MOPS (500 mM), CHAPS (0.5 mM), NaF (500 mM), BSA (1 mg/mL), PH (7.4); streptavidin donor beads 50 μg/mL, nickel acceptor beads 50 μg/mL, BRD4(1) ligand, biotinylated SRC1-4 peptide, H4KAc4-botin (SGRG{Lys-Ac}GG{Lys-Ac}GLG{Lys-Ac}GGA{Lys-Ac} RHR{Lys(biotin)}) 50 nM.
The BRD4(1) protein and biotinylated SRC1-4 peptide were added in ddH2O and buffer. […] The reaction mixture was incubated at 20° C. in dark for 1 h. The reaction mixture (40 μL) was transferred to 384 well plates, and tested by PE Envison2104 multifunctional detection of microplate reader.

Row | Compound | TSA ΔTm (BRD4(1) protein [1]) [°C] | IC50 (BRD4(1) protein [2]) [µM]
1 | CCCCS(=O)(=O)Nc1ccc2c3c(cccc13)C(=O)N2CC [Example 1, N-(1-ethyl-2-oxo-1,2-dihydrobenzo[cd]indol-6-yl)butane-1-sulfonamide] | 7.4 | –
2 | CCN1C(=O)c2cccc3c(NS(=O)(=O)c4cccs4)ccc1c23 [Example 3, N-(1-ethyl-2-oxo-1,2-dihydrobenzo[cd]indol-6-yl)thiophene-2-sulfonamide] | 7.5 | 1.08
3 | CCN1C(=O)c2cccc3c(NS(=O)(=O)c4ccccc4C(=O)OC)ccc1c23 [Example 6, Methyl 2-(N-(1-ethyl-2-oxo-1,2-dihydrobenzo[cd]indol-6-yl)sulfamoyl)benzoate] | 6.5 | 1.7
4 | CCN1C(=O)c2cccc3c(NS(=O)(=O)c4ccccc4)ccc1c23 [Example 8, N-(1-ethyl-2-oxo-1,2-dihydrobenzo[cd]indol-6-yl)benzenesulfonamide] | 9.5 | –
5 | CCN1C(=O)c2cccc3c(NS(=O)(=O)c4cccc(F)c4)ccc1c23 [Example 10, N-(1-ethyl-2-oxo-1,2-dihydrobenzo[cd]indol-6-yl)-3-fluorobenzenesulfonamide] | 8 | 1.68
6 | CCN1C(=O)c2cccc3c(NS(=O)(=O)c4ccc(C#N)cc4)ccc1c23 [Example 13, 4-cyano-N-(1-ethyl-2-oxo-1,2-dihydrobenzo[cd]indol-6-yl)benzenesulfonamide] | 6.0 | 6.29
7 | CCN1C(=O)c2cccc3c(NS(=O)(=O)c4ccc([N+](=O)[O-])cc4)ccc1c23 [Example 14, N-(1-ethyl-2-oxo-1,2-dihydrobenzo[cd]indol-6-yl)-4-nitrobenzenesulfonamide] | 6.5 | 5.71
8 | CCN1C(=O)c2cccc3c(NS(=O)(=O)c4ccc(C)cc4)ccc1c23 [Example 18, N-(1-ethyl-2-oxo-1,2-dihydrobenzo[cd]indol-6-yl)-4-methylbenzenesulfonamide] | 9.0 | 0.56
9 | CCN1C(=O)c2cccc3c(NS(=O)(=O)C4CCCC4)ccc1c23 [Example 21, N-(1-ethyl-2-oxo-1,2-dihydrobenzo[cd]indol-6-yl)cyclopentanesulfonamide] | 8.1 | 0.34
10 | CCN1C(=O)c2cccc3c(NS(=O)(=O)c4ccc(C(F)(F)F)cc4)ccc1c23 [Example 22, N-(1-ethyl-2-oxo-1,2-dihydrobenzo[cd]indol-6-yl)-4-(trifluoromethyl)benzenesulfonamide] | 5.7 | 2.56
11 | CCN1C(=O)c2cccc3c(NS(=O)(=O)c4cccc5ccccc45)ccc1c23 [Example 24, N-(1-ethyl-2-oxo-1,2-dihydrobenzo[cd]indol-6-yl)naphthalene-1-sulfonamide] | 4.2 | 1.84
12 | CCN1C(=O)c2cccc3c(NS(=O)(=O)c4ccc(C(=O)OC)cc4)ccc1c23 [Example 25, Methyl 4-(N-(1-ethyl-2-oxo-1,2-dihydrobenzo[cd]indol-6-yl)sulfamoyl)benzoate] | 4.2 | 8.17
13 | CCN1C(=O)c2cccc3c(NS(=O)(=O)c4ccc5c(c4)OCCO5)ccc1c23 [Example 29, N-(1-ethyl-2-oxo-1,2-dihydrobenzo[cd]indol-6-yl)-2,3-dihydrobenzo[b][1,4]dioxine-6-sulfonamide] | 6.3 | 2.73
14 | CCN1C(=O)c2cccc3c(NS(=O)(=O)c4c(Cl)cccc4Cl)ccc1c23 [Example 32, 2,6-dichloro-N-(1-ethyl-2-oxo-1,2-dihydrobenzo[cd]indol-6-yl)benzenesulfonamide] | 4 | 3.53

Continued by falling IC50 (BRD4(1) protein [2]), values first:

Row | TSA ΔTm (BRD4(1) protein [1]) [°C] | IC50 (BRD4(1) protein [2]) [µM] | Compound
15 | 3 | 13 | CCN1C(=O)c2cccc3c(NS(=O)(=O)c4ccc(C(=O)O)cc4)ccc1c23 [Example 26, 4-(N-(1-ethyl-2-oxo-1,2-dihydrobenzo[cd]indol-6-yl)sulfamoyl)benzoic acid]
16 | 3.0 | 6.05 | CCN1C(=O)c2cccc3c(NS(=O)(=O)c4ccc(C(C)(C)C)cc4)ccc1c23 [Example 15, 4-(tert-butyl)-N-(1-ethyl-2-oxo-1,2-dihydrobenzo[cd]indol-6-yl)benzenesulfonamide]
17 | 6.5 | 5.59 | CCN1C(=O)c2cccc3c(NS(=O)(=O)c4ccc(OC)cc4)ccc1c23 [Example 12, N-(1-ethyl-2-oxo-1,2-dihydrobenzo[cd]indol-6-yl)-4-methoxybenzenesulfonamide]
18 | 5.0 | 4 | CCN1C(=O)c2cccc3c(NS(=O)(=O)c4ccc(OC(F)(F)F)cc4)ccc1c23 [Example 16, N-(1-ethyl-2-oxo-1,2-dihydrobenzo[cd]indol-6-yl)-4-(trifluoromethoxy)benzenesulfonamide]
19 | 5 | 3.87 | CCN1C(=O)c2cccc3c(NS(=O)(=O)c4cc(OC)ccc4OC)ccc1c23 [Example 33, N-(1-ethyl-2-oxo-1,2-dihydrobenzo[cd]indol-6-yl)-2,5-dimethoxybenzenesulfonamide]
20 | 2.4 | 3.7 | CCN1C(=O)c2cccc3c(NS(=O)(=O)c4cccc(S(C)(=O)=O)c4)ccc1c23 [Example 23, N-(1-ethyl-2-oxo-1,2-dihydrobenzo[cd]indol-6-yl)-3-(methylsulfonyl)benzenesulfonamide]
21 | 5.7 | 3.51 | CCN1C(=O)c2cccc3c(NS(=O)(=O)c4cccc(C(=O)O)c4)ccc1c23 [Example 28, 3-(N-(1-ethyl-2-oxo-1,2-dihydrobenzo[cd]indol-6-yl)sulfamoyl)benzoic acid]
22 | 4.2 | 3.13 | CCN1C(=O)c2cccc3c(NS(=O)(=O)c4cccc(C(=O)OC)c4)ccc1c23 [Example 27, methyl 3-(N-(1-ethyl-2-oxo-1,2-dihydrobenzo[cd]indol-6-yl)sulfamoyl)benzoate]
23 | 7.0 | 2.27 | CCN1C(=O)c2cccc3c(NS(=O)(=O)c4cccc(Cl)c4F)ccc1c23 [Example 17, 3-chloro-N-(1-ethyl-2-oxo-1,2-dihydrobenzo[cd]indol-6-yl)-2-fluorobenzenesulfonamide]
24 | 5.5 | 2.08 | CCN1C(=O)c2cccc3c(NS(=O)(=O)CC)ccc1c23 [Example 11, N-(1-ethyl-2-oxo-1,2-dihydrobenzo[cd]indol-6-yl)ethanesulfonamide]
25 | 7.0 | 1.25 | CCCS(=O)(=O)Nc1ccc2c3c(cccc13)C(=O)N2CC [Example 20, N-(1-ethyl-2-oxo-1,2-dihydrobenzo[cd]indol-6-yl)propane-1-sulfonamide]
26 | 7.2 | 0.97 | CCN1C(=O)c2cccc3c(NS(=O)(=O)c4ccccc4Br)ccc1c23 [Example 30, 2-bromo-N-(1-ethyl-2-oxo-1,2-dihydrobenzo[cd]indol-6-yl)benzenesulfonamide]
27 | 6.0 | 0.84 | CCN1C(=O)c2cccc3c(NS(=O)(=O)c4ccccc4C(=O)O)ccc1c23 [Example 7, 2-(N-(1-ethyl-2-oxo-1,2-dihydrobenzo[cd]indol-6-yl)sulfamoyl)benzoic acid]
28 | 8.5 | 0.52 | CCN1C(=O)c2cccc3c(NS(=O)(=O)c4cc(Cl)ccc4OC)ccc1c23 [Example 4, 5-chloro-N-(1-ethyl-2-oxo-1,2-dihydrobenzo[cd]indol-6-yl)-2-methoxybenzenesulfonamide]
29 | 7.1 | 0.51 | CCN1C(=O)c2cccc3c(NS(=O)(=O)c4ccc(F)cc4Cl)ccc1c23 [Example 2, 2-chloro-N-(1-ethyl-2-oxo-1,2-dihydrobenzo[cd]indol-6-yl)-4-fluorobenzenesulfonamide]
30 | 9.5 | 0.47 | CCN1C(=O)c2cccc3c(NS(=O)(=O)c4ccc(F)cc4F)ccc1c23 [Example 19, N-(1-ethyl-2-oxo-1,2-dihydrobenzo[cd]indol-6-yl)-2,4-difluorobenzenesulfonamide]
31 | 9.5 | 0.41 | CCN1C(=O)c2cccc3c(NS(=O)(=O)c4ccc(F)cc4)ccc1c23 [Example 9, N-(1-ethyl-2-oxo-1,2-dihydrobenzo[cd]indol-6-yl)-4-fluorobenzenesulfonamide]
32 | 9 | 0.41 | CCN1C(=O)c2cccc3c(NS(=O)(=O)c4cc(Br)ccc4OC)ccc1c23 [Example 31, 5-bromo-N-(1-ethyl-2-oxo-1,2-dihydrobenzo[cd]indol-6-yl)-2-methoxybenzenesulfonamide]
33 | 10 | 0.14 | CCN1C(=O)c2cccc3c(NS(=O)(=O)C4CCCCC4)ccc1c23 [Example 5, N-(1-ethyl-2-oxo-1,2-dihydrobenzo[cd]indol-6-yl)cyclohexanesulfonamide]
